Results published in patent EP0162413A2, “Polyamine for use as a medicine in the treatment of neoplasms” (MERRELL DOW PHARMACEUTICALS INC., priority 1984, dated 1985).

Key:
[1] = system: Lewis Lung Tumor (3LL); test: Growth of Lewis lung tumor (3LL) in mice (DFMO, norspermidine); assay type: in vivo; conditions: 3LL s.c.; Norspermidine i.p. 50 mg/kg/day day 1 to 14; DFMO 2% in drinking water; tumors weighed at end of 18 days
Experimental: 1 x 10^5 3LL cells per animal were injected s.c. in the intrascapular region of the mice on day 0. Drug treatments were started on day 1. DFMO was administered as a 2% solution in drinking water (approximately 3 g/kg based on fluid intake). Norspermidine was administered i.p. 50 mg/kg/day from day 1 to 14. At the end of 18 days, animals were sacrificed, tumors disected and weighed.

[2] = system: L1210 Leukemia; test: Polyamine levels of L1210 leukemia cells collected from treated mice; assay type: in vivo; conditions: L1210 cells collected on day 4; Norspermidine i.p. 50 mg/kg/day; DFMO 2% in drinking water
Experimental: (§1) 1 x 10^5 L1210 leukemic cells per animal were innoculated i.p. on day 0 and drug treatments were started on day 1. DFMO was administered as 2% solution in drinking water (approximately 3 g/kg based on fluid intake). Norspermidine was administered i.p. at 50 mg/kg/day from day 1 to 7. Polyamine concentrations were determined on cells collected from treated and control animals on day 4. ND: not detectable; [formula]

[3] = system: L1210 Leukemia; test: Survival of mice with L1210 leukemia (norspermidine, DFMO); assay type: in vivo; conditions: Norspermidine i.p. 50 mg/kg/day day 1 to 7; DFMO 2% solution in drinking water (approximately 3 g/kg)
Experimental: as §1

[4] = system: B16 Melanoma; test: Survival of B16 melanoma bearing mice (DFMO, norspermidine); assay type: in vivo; conditions: B16 i.p.; Norspermidine i.p. 50 mg/kg/day day 1 to 7; DFMO 2% in drinking water
Experimental: 1 x 10^5 B16 melanoma cells per animal were injected i.p. on day 0. Drug treatments were started on day 1. DFMO was administered as a 2% solution in drinking water (approximately 3 g/kg based on fluid intake). Norspermidine was administered i.p. at 50 mg/kg/day starting day 1 to 7. [formula]

[5] = system: Mouse Melanoma (B16) Cells; test: Growth of B16 melanoma cells in culture (N,N'-bis(3-aminopropyl)-1,8-octanediamine); assay type: cell-based; conditions: 72 hours, 37°C
Experimental: (§2) HeLa cells and B16 melanoma cells were plated at a density of 1 x 10^5/plate (35 mm) and incubated overnight. Different concentrations of the compound in regular medium --were added and cell growth was determined after 72 hours of incubation at 37°C.

[6] = system: B16 Melanoma; test: Antitumor activity against B16 melanoma in mice, tumor weight; assay type: in vivo; conditions: day 1-10, tumor cells s.c., sacrificed on day 15
Experimental: (§3) 1 x 10^5 tumor cells/animal were inoculated s.c. on day 0 and the drug treatments were started on day 1. "N,N'-bis (3-aminopropyl)-1, 8-octanediamine was administered at different doses from day 1-10. The animals were sacrificed on day 15 and the tumors were dissected and weighed.

[7] = system: L1210 Leukemia; test: Antitumor activity against L1210 leukemia in mice, survival (N,N'-bis(3-aminopropyl)-1,8-octanediamine); assay type: in vivo
Experimental: Treatment Survival (Days) % T/C Control 7.5 ^± 0.5 Compound 25 mg/kg^* 16.0 ^± 1.5 213.3 6.26 mg/kg^** 27 ^± 3.0 360.0 1 x 10^5 L1210 leukemic cells/animal were inoculated i.p. on day 0 and drug treatments were started as follows: * N,N'-bis(3-aminopropyl)-1,8-octanediamine was administered i.p. at 25 mg/Kg/day. from day 1-7. ^** The compound was administered i.p. at 6.25 mg/kg 4 times a day, every three hours starting at 8:30 a.m. to 5:30 p.m. from days 3-7. [formula]

[8] = system: Human Cervical Cancer (HeLa); test: Growth of HeLa cells in culture (N,N'-bis(3-aminopropyl)-1,8-octanediamine); assay type: cell-based; conditions: 72 hours, 37°C
Experimental: as §2

[9] = system: Lewis Lung Carcinoma; test: Antitumor activity against Lewis lung carcinoma in mice, tumor weight; assay type: in vivo; conditions: day 1-10, tumor cells s.c., sacrificed on day 15
Experimental: as §3

[10] = system: HeLa Cells; test: Polyamine levels of HeLa cells in culture (norspermidine); assay type: cell-based, Human
[11] = system: HeLa Cells; test: Growth and mitotic index of HeLa cells in culture (norspermidine); assay type: cell-based, Human; conditions: 72 hours, 37°C

NCCC[C@](N)(C(=O)O)C(F)F [DFMO, α-difluoromethyl ornithine, reference compound]
% Inhibition [1]: 4% | Tumor Weight (gr) [1]: 4.92 gr | Polyamine Concentration Putrescine [2]: 0.015 n·moles/10^6 cells | Polyamine Concentration Spermidine [2]: 0.84 n·moles/10^6 cells | Polyamine Concentration Spermine [2]: 1.18 n·moles/10^6 cells | % T/C [3]: 107% | Survival [3]: 8.0 days | % T/C [4]: 129% | Survival [4]: 17.5 days

NCCCNCCCCCCCCNCCCN [N,N'-bis(3-aminopropyl)-1,8-octanediamine]
B16 Melanoma Cell No. x 10^6 ([5]; 0.001 mM): 14.5 x 10^6 | B16 Melanoma Cell No. x 10^6 ([5]; 0.01 mM): 7.40 x 10^6 | B16 Melanoma Cell No. x 10^6 ([5]; 0.1 mM): 7.42 x 10^6 | B16 Melanoma Cell No. x 10^6 ([5]; 1.0 mM): 0 x 10^6 | inhibition at 1 µM ([5]; Mus musculus, B16, 0.001 mM, read-out: B16 Melanoma % Inh. of Cell Growth): 16% | inhibition at 10 µM ([5]; Mus musculus, B16, 0.01 mM, read-out: B16 Melanoma % Inh. of Cell Growth): 57% | inhibition at 100 µM ([5]; Mus musculus, B16, 0.1 mM, read-out: B16 Melanoma % Inh. of Cell Growth): 57% | inhibition at 1000 µM ([5]; Mus musculus, B16, 1.0 mM, read-out: B16 Melanoma % Inh. of Cell Growth): 100% | B16 Melanoma % Inh. ([6]; 6.25 mg/kg): 66% | B16 Melanoma Tumor Weight (gms) ([6]; 6.25 mg/kg): 1.68 ± 0.37 gms | B16 Melanoma % Inh. ([6]; 12.5 mg/kg): 81% | B16 Melanoma Tumor Weight (gms) ([6]; 12.5 mg/kg): 0.95 ± 0.29 gms | % T/C ([7]; 6.26 mg/kg (footnote: i.p. at 6.25 mg/kg 4 times a day, every three hours, days 3-7)): 360.0% | % T/C ([7]; 25 mg/kg: i.p. at 25 mg/Kg/day from day 1-7): 213.3% | HeLa Cells Cell No. x 10^5 ([8]; 0.001 mM): 7.56 x 10^5 | HeLa Cells Cell No. x 10^5 ([8]; 0.01 mM): 5.9 x 10^5 | HeLa Cells Cell No. x 10^5 ([8]; 0.1 mM): 4.56 x 10^5 | HeLa Cells Cell No. x 10^5 ([8]; 1.0 mM): 2.82 x 10^5 | inhibition at 1 µM ([8]; Homo sapiens, HeLa, 0.001 mM, read-out: HeLa Cells % Inh. of Cell Growth): 39% | inhibition at 10 µM ([8]; Homo sapiens, HeLa, 0.01 mM, read-out: HeLa Cells % Inh. of Cell Growth): 50% | inhibition at 100 µM ([8]; Homo sapiens, HeLa, 0.1 mM, read-out: HeLa Cells % Inh. of Cell Growth): 62% | inhibition at 1000 µM ([8]; Homo sapiens, HeLa, 1.0 mM, read-out: HeLa Cells % Inh. of Cell Growth): 76% | Lewis Lung Carcinoma % Inh. ([9]; 6.25 mg/kg): 37% | Lewis Lung Carcinoma Tumor Weight (gms) ([9]; 6.25 mg/kg): 3.10 ± 0.39 gms | Lewis Lung Carcinoma % Inh. ([9]; 12.5 mg/kg): 61% | Lewis Lung Carcinoma Tumor Weight (gms) ([9]; 12.5 mg/kg): 1.94 ± 0.24 gms

NCCCNCCCN [Norspermidine, norspermidine]
Polyamine Concentration Norspermidine ([10]; 0.005 mM): 5.31 n·moles/10^6 cells | Polyamine Concentration Putriscine ([10]; 0.005 mM): 0.026 n·moles/10^6 cells | Polyamine Concentration Spermidine ([10]; 0.005 mM): 0.849 n·moles/10^6 cells | Polyamine Concentration Spermine ([10]; 0.005 mM): 0.637 n·moles/10^6 cells | Polyamine Concentration Norspermidine ([10]; 0.05 mM): 4.30 n·moles/10^6 cells | Polyamine Concentration Spermidine ([10]; 0.05 mM): 0.433 n·moles/10^6 cells | Polyamine Concentration Spermine ([10]; 0.05 mM): 0.452 n·moles/10^6 cells | Polyamine Concentration Norspermidine ([10]; 0.5 mM): 6.32 n·moles/10^6 cells | Polyamine Concentration Spermidine ([10]; 0.5 mM): 0.481 n·moles/10^6 cells | Polyamine Concentration Spermine ([10]; 0.5 mM): 0.441 n·moles/10^6 cells | % Inhibition [1]: 32% | Tumor Weight (gr) [1]: 3.50 gr | Polyamine Concentration Spermidine [2]: 0.69 n·moles/10^6 cells | Polyamine Concentration Spermine [2]: 0.77 n·moles/10^6 cells | % T/C [3]: 147% | Survival [3]: 11.0 days | % T/C [4]: 133% | Survival [4]: 18.0 days | Cell No. x 10^6 ([11]; 0.005 mM): 0.70 x 10^6 | Mitotic Index ([11]; 0.005 mM): 74.0 | Cell No. x 10^6 ([11]; 0.05 mM): 0.64 x 10^6 | Mitotic Index ([11]; 0.05 mM): 76.7 | Cell No. x 10^6 ([11]; 0.5 mM): 0.70 x 10^6 | Mitotic Index ([11]; 0.5 mM): 71.0 | inhibition at 5 µM ([11]; Homo sapiens, HeLa, 0.005 mM, read-out: % Inhibition of Cell Growth): 61% | inhibition at 50 µM ([11]; Homo sapiens, HeLa, 0.05 mM, read-out: % Inhibition of Cell Growth): 65% | inhibition at 500 µM ([11]; Homo sapiens, HeLa, 0.5 mM, read-out: % Inhibition of Cell Growth): 61%
